Converted amounts (≈) assume the structure as drawn.
Legend:
Entercoccus faecium 2041 = assay: broth micro-dilution MIC; format: cell-based; settings: Entercoccus faecium 2041
Procedure: (§1) The formula I compounds have in vitro and in vivo activity against Gram-positive pathogenic bacteria. The MIC's were determined using a standard broth micro-dilution assay.

Entercoccus faecium 180 = assay: broth micro-dilution MIC; format: cell-based; settings: Entercoccus faecium 180
Procedure: as §1

[1] = system: Streptococcus pneumoniae P1; assay: broth micro-dilution MIC; format: cell-based
Procedure: as §1

[2] = system: Staphylococcus haemolyticus 105; assay: broth micro-dilution MIC; format: cell-based
Procedure: as §1

[3] = system: Staphylococcus epidermidis 270; assay: broth micro-dilution MIC; format: cell-based
Procedure: as §1

[4] = system: Staphylococcus haemolyticus 415; assay: broth micro-dilution MIC; format: cell-based
Procedure: as §1

[5] = system: Enterococcus gallinarum 245; assay: broth micro-dilution MIC; format: cell-based; settings: Enterococcus gallinarum 245
Procedure: as §1

[6] = system: Staphylococcus aureus S13E; format: cell-based
Procedure: (§2) The MIC's were determined using a standard broth micro-dilution assay.

[7] = system: Staphylococcus aureus SA1199B; format: cell-based
Procedure: as §2

[8] = system: vancomycin-susceptible enterococci; assay: broth micro-dilution, mean geometric MIC; format: cell-based, Enterococcus faecium and Enterococcus faecalis; settings: enterococci, 24-hour incubation
[9] = system: Streptococcus pyogenes C203; assay: broth micro-dilution MIC; format: cell-based
Procedure: as §2

Entercoccus faecium 276 = assay: broth micro-dilution MIC; format: cell-based
Procedure: as §2

[10] = system: Staphylococcus aureus 447; assay: broth micro-dilution MIC; format: cell-based
Procedure: as §2

[11] = system: Staphylococcus aureus X400; assay: broth micro-dilution MIC; format: cell-based
Procedure: as §2

[12] = system: Entercoccus faecium 180-1; assay: broth micro-dilution MIC; format: cell-based
Procedure: as §2

[13] = system: Staphylococcus aureus 491; assay: broth micro-dilution MIC; format: cell-based
Procedure: as §2

[14] = system: Staphylococcus aureus SA1199; assay: broth micro-dilution MIC; format: cell-based
Procedure: as §2

[15] = system: Staphylococcus aureus SA1199A; assay: broth micro-dilution MIC; format: cell-based
Procedure: as §2

[16] = system: Staphylococcus aureus 489; assay: broth micro-dilution MIC; format: cell-based
Procedure: as §2

[17] = system: Staphylococcus aureus 446; assay: broth micro-dilution MIC; format: cell-based
Procedure: as §2

[18] = system: vancomycin-resistant enterococci; assay: broth micro-dilution, mean geometric MIC; format: cell-based, Enterococcus faecium and Enterococcus faecalis; settings: enterococci, 24-hour incubation
[19] = system: Staphylococcus aureus X778; assay: broth micro-dilution MIC; format: cell-based
Procedure: as §2

## CN[C@H](CC(C)C)C(=O)N[C@H]1C(=O)N[C@@H](CC(N)=O)C(=O)N[C@H]2C(=O)N[C@H]3C(=O)N[C@H](C(=O)N[C@H](C(=O)O)c4cc(O)cc(O)c4-c4cc3ccc4O)[C@H](O[C@H]3C[C@](C)(N)[C@@H](O)[C@H](C)O3)c3ccc(c(Cl)c3)Oc3cc2cc(c3O[C@@H]2O[C@H](CO)[C@@H](O)[C@H](O)[C@H]2O[C@H]2C[C@](C)(NCc3ccc(-c4cccc(F)c4)cc3)[C@@H](O)[C@H](C)O2)Oc2ccc(cc2Cl)[C@H]1O [Compound 92]
Entercoccus faecium 2041
  MIC: 0.125 µg/mL (≈ 0.0704 µM)
Entercoccus faecium 180
  MIC: 0.125 µg/mL (≈ 0.0704 µM)
[1]
  MIC: ≤ 0.06 µg/mL
[2]
  MIC: 2 µg/mL (≈ 1.13 µM)
[3]
  MIC: 1 µg/mL (≈ 0.563 µM)
[4]
  MIC: 2 µg/mL (≈ 1.13 µM)
[5]
  MIC: 2 µg/mL (≈ 1.13 µM)
[6]
  MIC: 0.125 µg/mL (≈ 0.0704 µM)
[7]
  MIC: 0.5 µg/mL (≈ 0.281 µM)
[8]
  mean geometric MIC, Vancomycin Sensitive Strains: 0.082 µg/mL
[9]
  MIC: ≤ 0.06 µg/mL
Entercoccus faecium 276
  MIC: 0.125 µg/mL (≈ 0.0704 µM)
[10]
  MIC: 0.5 µg/mL (≈ 0.281 µM)
[11]
  MIC: 0.5 µg/mL (≈ 0.281 µM)
[12]
  MIC: ≤ 0.06 µg/mL
[13]
  MIC: 1 µg/mL (≈ 0.563 µM)
[14]
  MIC: 1 µg/mL (≈ 0.563 µM)
[15]
  MIC: ≤ 0.06 µg/mL
[16]
  MIC: ≤ 0.06 µg/mL
[17]
  MIC: 2 µg/mL (≈ 1.13 µM)
[18]
  mean geometric MIC, Vancomycin Resistant Strains: 1.7 µg/mL

## CNC(CC(C)C)C(=O)NC1C(=O)NC(CC(N)=O)C(=O)NC2C(=O)NC3C(=O)NC(C(=O)NC(C(=O)O)c4cc(O)cc(O)c4-c4cc3ccc4O)C(OC3CC(C)(N)C(O)C(C)O3)c3ccc(c(Cl)c3)Oc3cc2cc(c3OC2OC(CO)C(O)C(O)C2OC2CC(C)(NCc3ccc4ccc5cccc6ccc3c4c56)C(O)C(C)O2)Oc2ccc(cc2Cl)C1O (stereo not drawn) [Compound 16]
Entercoccus faecium 2041
  MIC: 0.5 µg/mL (≈ 0.277 µM)
Entercoccus faecium 180
  MIC: 1 µg/mL (≈ 0.553 µM)
[1]
  MIC: ≤ 0.06 µg/mL
[2]
  MIC: 8 µg/mL (≈ 4.43 µM)
[3]
  MIC: 2 µg/mL (≈ 1.11 µM)
[4]
  MIC: 4 µg/mL (≈ 2.21 µM)
[5]
  MIC: 1 µg/mL (≈ 0.553 µM)
[6]
  MIC: 1 µg/mL (≈ 0.553 µM)
[7]
  MIC: 1 µg/mL (≈ 0.553 µM)
[8]
  mean geometric MIC, Vancomycin Sensitive Strains: 0.67 µg/mL
[9]
  MIC: ≤ 0.06 µg/mL
Entercoccus faecium 276
  MIC: 2 µg/mL (≈ 1.11 µM)
[10]
  MIC: 4 µg/mL (≈ 2.21 µM)
[11]
  MIC: 0.5 µg/mL (≈ 0.277 µM)
[12]
  MIC: 0.125 µg/mL (≈ 0.0692 µM)
[13]
  MIC: 1 µg/mL (≈ 0.553 µM)
[14]
  MIC: 2 µg/mL (≈ 1.11 µM)
[15]
  MIC: ≤ 0.06 µg/mL
[16]
  MIC: 0.5 µg/mL (≈ 0.277 µM)
[17]
  MIC: 4 µg/mL (≈ 2.21 µM)

## CNC(CC(C)C)C(=O)NC1C(=O)NC(CC(N)=O)C(=O)NC2C(=O)NC3C(=O)NC(C(=O)NC(C(=O)O)c4cc(O)cc(O)c4-c4cc3ccc4O)C(OC3CC(C)(N)C(O)C(C)O3)c3ccc(c(Cl)c3)Oc3cc2cc(c3OC2OC(CO)C(O)C(O)C2OC2CC(C)(NCCCCCCCCCCCCc3ccccc3)C(O)C(C)O2)Oc2ccc(cc2Cl)C1O (stereo not drawn) [Compound 234]
Entercoccus faecium 2041
  MIC: 0.5 µg/mL (≈ 0.272 µM)
Entercoccus faecium 180
  MIC: 1 µg/mL (≈ 0.544 µM)
[2]
  MIC: 8 µg/mL (≈ 4.36 µM)
[3]
  MIC: 4 µg/mL (≈ 2.18 µM)
[4]
  MIC: 16 µg/mL (≈ 8.71 µM)
[5]
  MIC: 16 µg/mL (≈ 8.71 µM)
[6]
  MIC: 8 µg/mL (≈ 4.36 µM)
[7]
  MIC: 8 µg/mL (≈ 4.36 µM)
[8]
  mean geometric MIC, Vancomycin Sensitive Strains: 2 µg/mL
Entercoccus faecium 276
  MIC: 4 µg/mL (≈ 2.18 µM)
[10]
  MIC: 8 µg/mL (≈ 4.36 µM)
[11]
  MIC: 8 µg/mL (≈ 4.36 µM)
[12]
  MIC: 1 µg/mL (≈ 0.544 µM)
[13]
  MIC: 8 µg/mL (≈ 4.36 µM)
[14]
  MIC: 8 µg/mL (≈ 4.36 µM)
[19]
  MIC: 4 µg/mL (≈ 2.18 µM)
[15]
  MIC: 2 µg/mL (≈ 1.09 µM)
[16]
  MIC: 4 µg/mL (≈ 2.18 µM)
[17]
  MIC: 4 µg/mL (≈ 2.18 µM)
[18]
  mean geometric MIC, Vancomycin Resistant Strains: 2 µg/mL

## CNC(CC(C)C)C(=O)NC1C(=O)NC(CC(N)=O)C(=O)NC2C(=O)NC3C(=O)NC(C(=O)NC(C(=O)O)c4cc(O)cc(O)c4-c4cc3ccc4O)C(OC3CC(C)(N)C(O)C(C)O3)c3ccc(c(Cl)c3)Oc3cc2cc(c3OC2OC(CO)C(O)C(O)C2OC2CC(C)(NCc3ccc(-c4ccc(C)cc4)c(C)c3)C(O)C(C)O2)Oc2ccc(cc2Cl)C1O (stereo not drawn) [Compound 225]
Entercoccus faecium 2041
  MIC: 0.125 µg/mL (≈ 0.07 µM)
Entercoccus faecium 180
  MIC: ≤ 0.06 µg/mL
[1]
  MIC: ≤ 0.06 µg/mL
[2]
  MIC: 0.5 µg/mL (≈ 0.28 µM)
[3]
  MIC: 1 µg/mL (≈ 0.56 µM)
[4]
  MIC: 4 µg/mL (≈ 2.24 µM)
[5]
  MIC: 4 µg/mL (≈ 2.24 µM)
[6]
  MIC: 1 µg/mL (≈ 0.56 µM)
[7]
  MIC: 2 µg/mL (≈ 1.12 µM)
[8]
  mean geometric MIC, Vancomycin Sensitive Strains: 0.072 µg/mL
[9]
  MIC: ≤ 0.06 µg/mL
[10]
  MIC: 1 µg/mL (≈ 0.56 µM)
[11]
  MIC: 1 µg/mL (≈ 0.56 µM)
[12]
  MIC: ≤ 0.06 µg/mL
[13]
  MIC: 1 µg/mL (≈ 0.56 µM)
[14]
  MIC: 1 µg/mL (≈ 0.56 µM)
[19]
  MIC: 0.5 µg/mL (≈ 0.28 µM)
[16]
  MIC: 2 µg/mL (≈ 1.12 µM)
[17]
  MIC: 1 µg/mL (≈ 0.56 µM)
[18]
  mean geometric MIC, Vancomycin Resistant Strains: 0.63 µg/mL
